According to patent US9062043B2, “Fused tricyclic compounds as serine-threonine protein kinase and PARP modulators” (SENHWA BIOSCIENCES, INC., priority 2006, dated 2015):
Where two headings read alike, the source gives them in different places. Blank lines part the entries; values can stand above or below the compound they belong to.

Tests used:
Assay type in all cases: cell-based
[1] = system: HCT-116 human colorectal carcinoma cells; test: Cell proliferation assay, Alamar Blue, HCT-116;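 further: cells exposed to compound for about 4 days, then Alamar Blue added and fluorescence read after about 4 h, medium-only wells as control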
Hs578T = test: Cell proliferation assay, Alamar Blue, Hs578T; conditions: Homo sapiens, Hs-578T
[2] = system: PC-3 human prostatic cancer cells; test: Cell proliferation assay, Alamar Blue, PC-3
Description: (§1) A representative cell-proliferation assay protocol using Alamar Blue dye (stored at 4° C., use 20 ul per well) is described hereafter.
(§2) c. Plate 4,000-5,000 cells per well in 100 μl of medium and seed into a 96-well plate according to the following plate layout. Add cell culture medium only to wells B10 to B12. Wells B1 to B9 have cells but no compound added.
(§3) d. Add 100 μl of 2× drug dilution to each well in a concentration shown in the plate layout above. At the same time, add 100 μl of media into the control wells (wells B10 to B12). Total volume is 200 μl/well.
(§4) e. Incubate four (4) days at 37° C., 5% CO2 in a humidified incubator.
(§5) f. Add 20 μl Alamar Blue reagent to each well.
(§6) g. Incubate for four (4) hours at 37° C., 5% CO2 in a humidified incubator.
(§7) h. Record fluorescence at an excitation wavelength of 544 nm and emission wavelength of 590 nm using a microplate reader.
(§8) In the assays, cells are cultured with a test compound for approximately four days, the dye then is added to the cells and fluorescence of […] dye is detected after approximately four hours. Different types of cells can be utilized in the assays (e.g., HCT-116 human colorectal carcinoma cells, PC-3 human prostatic cancer cells and MiaPaca human pancreatic carcinoma cells). Anti-proliferative effects of representative compounds are provided hereafter.

H1299 = test: Cell proliferation assay, Alamar Blue, H1299; conditions: Homo sapiens, NCI-H1299
Description: as §2, §3, §4, §5, §6, §7, §8

[3] = system: MiaPaca human pancreatic carcinoma cells; test: Cell proliferation assay, Alamar Blue, MiaPaca
Description: as §1, §2, §3, §4, §5, §6, §7, §8

Jurkat = test: Cell proliferation assay, Alamar Blue, Jurkat; conditions: Homo sapiens;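 further: cells exposed to compound for about 4 days at 37 °C, then Alamar Blue added and fluorescence read after about 4 h, controls given medium without drug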
A549 = test: Cell proliferation assay, Alamar Blue, A549; conditions: Homo sapiens, Table 16
Description: as §2, §3, §4, §5, §6, §7, §8

BxPC3 = test: Cell proliferation assay, Alamar Blue, BxPC3; conditions: Homo sapiens, BXPC-3
Description: as §2, §3, §4, §5, §6, §7, §8

PanC1 = test: Cell proliferation assay, Alamar Blue, PanC1; conditions: Homo sapiens, PANC-1; Table 19b; read-out: IC50 PanC1
Description: as §1, §2, §3, §4, §5, §6, §7, §8

[4] = HCT-116, Table 16, first HCT-116 column
[5] = HCT-116, Table 16, second HCT-116 column

- IC50 [1, 4]: > 10 µM
- IC50 ([2]; Table 16, read-out: IC50 PC3): > 50 µM
- IC50 (H1299; Table 16): 8.9 µM
Structure (SMILES): CN(C)CCNc1nc2cc(C(=O)O)ccc2c2sccc12
- IC50 (Hs578T; Table 16): > 50 µM

- IC50 [1, 4]: > 10 µM
- IC50 [1, 5]: > 10 µM
- IC50 ([3]; MIA PaCa-2, Table 16): > 10 µM
- IC50 (Jurkat; Table 16): 6.12 µM
- IC50 ([2]; Table 16, read-out: IC50 PC3): 9.09 µM
- IC50 (H1299; Table 16): 4.39 µM
Structure (SMILES): O=C(O)c1ccc2c(c1)nc(Nc1ccccc1)c1ccsc12
- IC50 (Hs578T; Table 16): 6.38 µM

- IC50 [1, 4]: > 10 µM
- IC50 ([2]; Table 16, read-out: IC50 PC3): 20 µM
- IC50 (H1299; Table 16): 11.7 µM
Structure (SMILES): c1ccc(Nc2nc3cc(-c4nnn[nH]4)ccc3c3sccc23)cc1
- IC50 (Hs578T; Table 16): 21.8 µM

- IC50 [1, 4]: 5 µM
- IC50 [1, 5]: 7.6 µM
- IC50 (Jurkat; Table 16): 6.26 µM
- IC50 (A549): 14.4 µM
- IC50 (BxPC3; Table 16): 1.97 µM
- IC50 ([2]; Table 16, read-out: IC50 PC3): 7.26 µM
- IC50 (H1299; Table 16): 17.8 µM
Structure (SMILES): c1ccc(Nc2nc3cc(-c4nnc[nH]4)ccc3c3sccc23)cc1
- IC50 (Hs578T; Table 16): 5.5 µM

- IC50 ([3]; MIA PaCa-2, Table 16): > 10 µM
- IC50 (Jurkat; Table 16): 8.89 µM
- IC50 ([2]; Table 16, read-out: IC50 PC3): 12 µM
- IC50 (H1299; Table 16): 15.2 µM
Structure (SMILES): Clc1cccc(Nc2nc3cc(-c4nnn[nH]4)ccc3c3sccc23)c1
- IC50 (Hs578T; Table 16): 5.23 µM

- IC50 [1, 5]: > 10 µM
- IC50 ([3]; MIA PaCa-2, Table 16): > 10 µM
- IC50 (Jurkat; Table 16): 4.22 µM
- IC50 ([2]; Table 16, read-out: IC50 PC3): 2.79 µM
- IC50 (H1299; Table 16): 4.01 µM
Structure (SMILES): CNC(=O)c1cccc(Nc2nc3cc(-c4nnn[nH]4)ccc3c3sccc23)c1
- IC50 (Hs578T; Table 16): 3.01 µM

- IC50 ([3]; MIA PaCa-2, Table 16): 9.55 µM
- IC50 ([2]; Table 16, read-out: IC50 PC3): 2.89 µM
- IC50 (H1299; Table 16): 3.05 µM
Structure (SMILES): Fc1cccc(Nc2nc3cc(-c4nnn[nH]4)ccc3c3sccc23)c1
- IC50 (Hs578T; Table 16): 3.37 µM

- IC50 ([2]; Table 18, read-out: IC50 PC3): > 50 µM
Structure (SMILES): Fc1cccc(Nc2nc3cc(-c4nnn[nH]4)ccc3c3cnccc23)c1

- IC50 ([2]; Table 18, read-out: IC50 PC3): > 50 µM
Structure (SMILES): Fc1cc(Nc2nc3cc(-c4nnn[nH]4)ccc3c3cnccc23)ccc1Cl

- IC50 ([1]; HCT-116, Table 18): > 10 µM
- IC50 ([3]; MIA PaCa-2, Table 18): 1.75 µM
- IC50 (Jurkat; Table 18): 1.09 µM
Structure (SMILES): CNc1ncc2c(n1)c(Nc1cccc(Cl)c1)nc1cc(C(=O)O)ccc12

- IC50 ([1]; HCT-116, Table 18): > 10 µM
- IC50 (Jurkat; Table 18): > 50 µM
Structure (SMILES): O=C(O)c1ccc2c(c1)nc(Nc1cncc(C3CC3)c1)c1ncncc12

- IC50 ([1]; HCT-116, Table 18): > 10 µM
- IC50 ([3]; MIA PaCa-2, Table 18): 8.33 µM
- IC50 (Jurkat; Table 18): 3.45 µM
Structure (SMILES): Cc1cccc(Nc2nc3cc(C(=O)O)ccc3c3cncnc23)c1

- IC50 (BxPC3; Table 19b): 38.1 µM
- IC50 (PanC1): > 50 µM
Structure (SMILES): O=C(O)c1ccc2c(c1)nc(Nc1cncc(C3CC3)c1)c1ccncc12

- IC50 ([1]; HCT-116, Table 18): > 10 µM
- IC50 ([3]; MIA PaCa-2, Table 18): 5.08 µM
- IC50 ([2]; Table 18, read-out: IC50 PC3): 23.6 µM
- IC50 (H1299; Table 18): 21 µM
Structure (SMILES): O=C(O)c1ccc2c(c1)nc(NCCc1ccccc1)c1ccncc12 [drawing 1007]
- IC50 (Hs578T; Table 18): 16.5 µM

- IC50 ([1]; HCT-116, Table 18): > 10 µM
- IC50 ([3]; MIA PaCa-2, Table 18): > 10 µM
- IC50 ([2]; Table 18, read-out: IC50 PC3): 46.6 µM
Structure (SMILES): O=C(O)c1ccc2c(c1)nc(NCCc1cccc(Cl)c1)c1ccncc12 [drawing 1021]
- IC50 (Hs578T; Table 18): 25 µM

- IC50 ([1]; HCT-116, Table 18): > 10 µM
- IC50 ([3]; MIA PaCa-2, Table 18): > 10 µM
- IC50 ([2]; Table 18, read-out: IC50 PC3): 27 µM
Structure (SMILES): O=C(O)c1ccc2c(c1)nc(NCCc1cccc(F)c1)c1ccncc12 [drawing 1022]
- IC50 (Hs578T; Table 18): 24.6 µM

- IC50 ([1]; HCT-116, Table 18): > 10 µM
- IC50 ([3]; MIA PaCa-2, Table 18): > 10 µM
- IC50 ([2]; Table 18, read-out: IC50 PC3): 5.25 µM
Structure (SMILES): O=C(O)c1ccc2c(c1)nc(NCCCc1ccccc1)c1ccncc12 [drawing 1023]
- IC50 (Hs578T; Table 18): 29.9 µM

- IC50 ([1]; HCT-116, Table 18): > 10 µM
- IC50 ([3]; MIA PaCa-2, Table 18): 0.45 µM
- IC50 (Jurkat; Table 18): 2.04 µM
Structure (SMILES): C#Cc1cccc(Nc2nc3cc(C(=O)O)ccc3c3cnc(NCC4CCCO4)nc23)c1 (stereo not shown) [drawing 1063]

- IC50 ([1]; HCT-116, Table 18): > 10 µM
- IC50 ([3]; MIA PaCa-2, Table 18): 0.48 µM
- IC50 (Jurkat; Table 18): 0.42 µM
Structure (SMILES): C#Cc1cccc(Nc2nc3cc(C(=O)O)ccc3c3cnc(NCC4CC4)nc23)c1 [drawing 1064]

- IC50 ([3]; MIA PaCa-2, Table 18): 32.4 µM
- IC50 (Jurkat; Table 18): 4.67 µM
Structure (SMILES): COC(=O)c1ccc2c(c1)nc(NC1CC1)c1nc(SCc3ccccc3Cl)ncc12 [drawing 1069]

- IC50 ([3]; MIA PaCa-2, Table 18): > 50 µM
- IC50 (Jurkat; Table 18): 29.3 µM
Structure (SMILES): O=C(O)c1ccc2c(c1)nc(NC1CC1)c1nc(SCc3ccccc3Cl)ncc12 [drawing 1072]

- IC50 ([1]; HCT-116, Table 18): > 10 µM
- IC50 ([3]; MIA PaCa-2, Table 18): 2.83 µM
- IC50 (Jurkat; Table 18): 3.45 µM
Structure (SMILES): O=C(O)c1ccc2c(c1)nc(NC1CC1)c1nc(NC3CC3)ncc12 [drawing 1074]

- IC50 ([1]; HCT-116, Table 18): > 10 µM
- IC50 ([3]; MIA PaCa-2, Table 18): 14.7 µM
- IC50 (Jurkat; Table 18): 8.82 µM
Structure (SMILES): O=C(O)c1ccc2c(c1)nc(NC1CC1)c1nc(NCc3ccccc3)ncc12 [drawing 1075]

- IC50 ([1]; HCT-116, Table 18): > 10 µM
- IC50 ([3]; MIA PaCa-2, Table 18): 2.44 µM
- IC50 (Jurkat; Table 18): 4.6 µM
Structure (SMILES): O=C(O)c1ccc2c(c1)nc(NC1CC1)c1nc(Nc3ccccc3)ncc12 [drawing 1076]

- IC50 ([3]; MIA PaCa-2, Table 18): > 50 µM
- IC50 (Jurkat; Table 18): 3.67 µM
Structure (SMILES): O=C(O)c1ccc2c(c1)nc(N1CCOCC1)c1nc(NC3CC3)ncc12 [drawing 1085]
